From patent US10751339B2, “Substituted aminopyrimidine compounds and methods of use” (SUNSHINE LAKE PHARMA CO., LTD., priority 2018, dated 2020)

Tests used:
[1] = Compound stability in rat liver microsomes; type: in vitro ADME; conditions: pH 7.4; for CLint scaled at 5 μM: liver microsomes, in vivo CLint extrapolated from rat liver microsome incubation; for half-life at 5 μM: rat liver microsomes 0.5 mg protein/mL, compound 5 μM, NADPH, 37° C., read-out: Rat T1/2
Method: (§1) Human or rat liver microsomes incubations were conducted in duplicate in polypropylene tubes. The typical incubation mixtures consisted of human or rat liver microsomes (0.5 mg protein/mL), compounds of interest (5 μM) and NADPH (1.0 mM) in a total volume of 200 μL potassium phosphate buffer (PBS, 100 mM, pH 7.4). Compounds were dissolved in DMSO and diluted with PBS such that the final concentration of DMSO was 0.05%. The enzymatic reactions were commenced with the addition of protein after a 3-min preincubation and incubated in a water bath open to the air at 37° C. Reactions were terminated at various time points (0, 5, 10, 15, 30, 60 min) by adding equal volume of ice-cold acetonitrile. The samples were stored at −80° C. until LC/MS/MS assays.
(§2) The concentrations of compounds in the incubation mixtures of human or rat liver microsomes were determined by a LC/MS/MS method. The ranges of the linearity in the concentration range were determined for each tested compounds.
(§3) A parallel incubation was performed using denatured microsomes as the negative control, and reactions were terminated at various time points (0, 15, 60 min) after incubation at 37° C.
(§4) Dextromethorphan (70 μM) was selected as the positive control, and reactions were terminated at various time points (0, 5, 10, 15, 30, 60 min) after incubation at 37° C. Both positive and negative control samples were included in each assay to ensure the integrity of the microsomal incubation system.
(§5) The concentrations of compounds in human or rat liver microsome incubations were plotted as a percentage of the relevant zero time point control for each reaction.

[2] = Compound stability in human liver microsomes; type: in vitro ADME; conditions: pH 7.4; for CLint scaled at 5 μM: liver microsomes, in vivo CLint extrapolated from human liver microsome incubation; for half-life at 5 μM: human liver microsomes 0.5 mg protein/mL, compound 5 μM, NADPH, 37° C., read-out: Human T1/2
Method: as §1, §2, §3, §4, §5

## CC#Cc1cccc2nc([C@H](CC)Nc3ncnc(N)c3-c3nnc(C)o3)n(C3CC3)c(=O)c12 [Example 27, (S)-2-(1-((6-amino-5-(5-methyl-1,3,4-oxadiazol-2-yl)pyrimidin-4-yl)amino)propyl)-3-cyclopropyl-5-(prop-1-yn-1-yl)quinazolin-4(3H)-one]
[1]
  CLint scaled at 5 μM: 91 mL/min/kg
  half-life at 5 μM: 27.3 min
[2]
  CLint scaled at 5 μM: 105 mL/min/kg
  half-life at 5 μM: 16.6 min

## C#Cc1cccc2nc([C@H](C)Nc3ncnc(N)c3-c3nnn(C)n3)n(-c3ccccc3)c(=O)c12 [Example 48, (S)-2-(1-((6-amino-5-(2-methyl-2H-tetrazol-5-yl)pyrimidin-4-yl)amino)ethyl)-5-ethynyl-3-phenylquinazolin-4(3H)-one]
[1]
  CLint scaled at 5 μM: 172 mL/min/kg
  half-life at 5 μM: 14.5 min
[2]
  CLint scaled at 5 μM: 311 mL/min/kg
  half-life at 5 μM: 5.6 min

## C#Cc1cccc2nc([C@H](C)Nc3ncnc(N)c3-c3ncn(C)n3)n(-c3ccccc3)c(=O)c12 [Example 49, (S)-2-(1-((6-amino-5-(1-methyl-1H-1,2,4-triazol-3-yl)pyrimidin-4-yl)amino)ethyl)-5-ethynyl-3-phenylquinazolin-4(3H)-one]
[1]
  CLint scaled at 5 μM: 107 mL/min/kg
  half-life at 5 μM: 23.2 min
[2]
  CLint scaled at 5 μM: 259 mL/min/kg
  half-life at 5 μM: 6.7 min

## C#Cc1cccc2nc([C@H](C)Nc3ncnc(N)c3-c3nc(C)no3)n(-c3ccccc3)c(=O)c12 [Example 44, (S)-2-(1-((6-amino-5-(3-methyl-1,2,4-oxadiazol-5-yl)pyrimidin-4-yl)amino)ethyl)-5-ethynyl-3-phenylquinazolin-4(3H)-one]
[1]
  CLint scaled at 5 μM: 169 mL/min/kg
  half-life at 5 μM: 14.7 min
[2]
  CLint scaled at 5 μM: 297 mL/min/kg
  half-life at 5 μM: 5.85 min

## Cc1nc(-c2c(N)ncnc2N[C@@H](C)c2nc3cccc(C#CC(C)O)c3c(=O)n2-c2ccccc2)no1 (stereo partly drawn) [Example 6, 2-((S)-1-((6-amino-5-(5-methyl-1,2,4-oxadiazol-3-yl)pyrimidin-4-yl)amino)ethyl)-5-(3-hydroxybut-1-yn-1-yl)-3-phenylquinazolin-4(3H)-one]
[1]
  CLint scaled at 5 μM: 41.6 mL/min/kg
  half-life at 5 μM: 59.7 min
[2]
  CLint scaled at 5 μM: 24.2 mL/min/kg
  half-life at 5 μM: 71.9 min

## CC#Cc1cccc2nc([C@H](C)Nc3ncnc(N)c3-c3nnn(C)n3)n(-c3ccccc3)c(=O)c12 [Example 12, (S)-2-(1-((6-amino-5-(2-methyl-2H-tetrazol-5-yl)pyrimidin-4-yl)amino)ethyl)-3-phenyl-5-(prop-1-yn-1-yl)quinazolin-4(3H)-one]
[1]
  CLint scaled at 5 μM: 70.9 mL/min/kg
  half-life at 5 μM: 35 min
[2]
  CLint scaled at 5 μM: 98 mL/min/kg
  half-life at 5 μM: 17.7 min

## C#Cc1cccc2nc([C@H](C)Nc3ncnc(N)c3-c3noc(C)n3)n(C3CC3)c(=O)c12 [Example 51, (S)-2-(1-((6-amino-5-(5-methyl-1,2,4-oxadiazol-3-yl)pyrimidin-4-yl)amino)ethyl)-3-cyclopropyl-5-ethynylquinazolin-4(3H)-one]
[1]
  CLint scaled at 5 μM: 133 mL/min/kg
  half-life at 5 μM: 18.7 min
[2]
  CLint scaled at 5 μM: 118 mL/min/kg
  half-life at 5 μM: 14.8 min

## C[C@H](Nc1ncnc(N)c1-c1nnn(C)n1)c1nc2cccc(C#CCO)c2c(=O)n1-c1ccccc1 [Example 39, (S)-2-(1-((6-amino-5-(2-methyl-2H-tetrazol-5-yl)pyrimidin-4-yl)amino)ethyl)-5-(3-hydroxyprop-1-yn-1-yl)-3-phenylquinazolin-4(3H)-one]
[1]
  CLint scaled at 5 μM: 43 mL/min/kg
  half-life at 5 μM: 57.7 min
[2]
  CLint scaled at 5 μM: 28.9 mL/min/kg
  half-life at 5 μM: 60.2 min

## CC#Cc1cccc2nc([C@H](C)Nc3ncnc(N)c3-c3noc(C)n3)n(-c3ccccc3)c(=O)c12 [Example 11, (S)-2-(1-((6-amino-5-(5-methyl-1,2,4-oxadiazol-3-yl)pyrimidin-4-yl)amino)ethyl)-3-phenyl-5-(prop-1-yn-1-yl)quinazolin-4(3H)-one]
[1]
  CLint scaled at 5 μM: 97.4 mL/min/kg
  half-life at 5 μM: 25.5 min
[2]
  CLint scaled at 5 μM: 63 mL/min/kg
  half-life at 5 μM: 27.6 min

## C#Cc1cccc2nc([C@H](C)Nc3ncnc(N)c3-c3nnc(C)o3)n(C3CC3)c(=O)c12 [Example 50, (S)-2-(1-((6-amino-5-(5-methyl-1,3 4-oxadiazol-2-yl)pyrimidin-4-yl)amino)ethyl)-3-cyclopropyl-5-ethynylquinazolin-4(3H)-one]
[1]
  CLint scaled at 5 μM: 34.8 mL/min/kg
  half-life at 5 μM: 71.4 min
[2]
  CLint scaled at 5 μM: 47.7 mL/min/kg
  half-life at 5 μM: 36.5 min

## Cc1noc(-c2c(N)ncnc2N[C@@H](C)c2nc3cccc(C#CCO)c3c(=O)n2C2CC2)n1 [Example 30, (S)-2-(1-((6-amino-5-(3-methyl-1,2,4-oxadiazol-5-yl)pyrimidin-4-yl)amino)ethyl)-3-cyclopropyl-5-(3-hydroxyprop-1-yn-1-yl)quinazolin-4(3H)-one]
[1]
  CLint scaled at 5 μM: 22.1 mL/min/kg
  half-life at 5 μM: 112 min
[2]
  CLint scaled at 5 μM: 26.2 mL/min/kg
  half-life at 5 μM: 66.4 min

## C#Cc1cccc2nc([C@H](C)Nc3ncnc(N)c3-c3noc(C)n3)n(-c3ccccc3)c(=O)c12 [Example 47, (S)-2-(1-((6-amino-5-(5-methyl-1,2,4-oxadiazol-3-yl)pyrimidin-4-yl)amino)ethyl)-5-ethynyl-3-phenylquinazolin-4(3H)-one]
[1]
  CLint scaled at 5 μM: 140 mL/min/kg
  half-life at 5 μM: 17.8 min
[2]
  CLint scaled at 5 μM: 287 mL/min/kg
  half-life at 5 μM: 6.05 min

## C#Cc1cccc2nc([C@H](C)Nc3ncnc(N)c3-c3nnc(C)o3)n(-c3ccccc3)c(=O)c12 [Example 45, (S)-2-(1-((6-amino-5-(5-methyl-1,3,4-oxadiazol-2-yl)pyrimidin-4-yl)amino)ethyl)-5-ethynyl-3-phenylquinazolin-4(3H)-one]
[1]
  CLint scaled at 5 μM: 87.2 mL/min/kg
  half-life at 5 μM: 28.5 min
[2]
  CLint scaled at 5 μM: 301 mL/min/kg
  half-life at 5 μM: 5.77 min

## C#Cc1cccc2nc([C@H](C)Nc3ncnc(N)c3-c3nc(C)no3)n(C3CC3)c(=O)c12 [Example 43, (S)-2-(1-((6-amino-5-(3-methyl-1,2,4-oxadiazol-5-yl)pyrimidin-4-1)amino)ethyl)-3-cyclopropyl-5-ethynylquinazolin-4(3H)-one]
[1]
  CLint scaled at 5 μM: 111 mL/min/kg
  half-life at 5 μM: 22.3 min
[2]
  CLint scaled at 5 μM: 105 mL/min/kg
  half-life at 5 μM: 16.6 min

## CC(O)C#Cc1cccc2nc([C@H](C)Nc3ncnc(N)c3-c3nnn(C)n3)n(-c3ccccc3)c(=O)c12 (stereo partly drawn) [Example 8, 2-((S)-1-((6-amino-5-(2-methyl-2H-tetrazol-5-yl)pyrimidin-4-yl)amino)ethyl)-5-(3-hydroxybut-1-yn-1-yl)-3-phenylquinazolin-4(3H)-one]
[1]
  CLint scaled at 5 μM: 32.9 mL/min/kg
  half-life at 5 μM: 75.4 min
[2]
  CLint scaled at 5 μM: 15.7 mL/min/kg
  half-life at 5 μM: 111 min

## C#Cc1cccc2nc([C@H](C)Nc3ncnc(N)c3-c3ncn(C)n3)n(C3CC3)c(=O)c12 [Example 53, (S)-2-(1-((6-amino-5-(1-methyl-1H-1,2,4-triazol-3-yl)pyrimidin-4-yl)amino)ethyl)-3-cyclopropyl-5-ethynylquinazolin-4(3H)-one]
[1]
  CLint scaled at 5 μM: 70.9 mL/min/kg
  half-life at 5 μM: 35 min
[2]
  CLint scaled at 5 μM: 74.5 mL/min/kg
  half-life at 5 μM: 23.4 min

## C[C@H](Nc1ncnc(N)c1-c1ncn(C)n1)c1nc2cccc(C#CCO)c2c(=O)n1-c1ccccc1 [Example 46, (S)-2-(1-((6-amino-5-(1-methyl-1H-1,2,4-triazol-3-yl)pyrimidin-4-yl)amino)ethyl)-5-(3-hydroxyprop-1-yn-1-yl)-3-phenylquinazolin-4(3H)-one]
[1]
  CLint scaled at 5 μM: 60.8 mL/min/kg
  half-life at 5 μM: 40.8 min
[2]
  CLint scaled at 5 μM: 49.2 mL/min/kg
  half-life at 5 μM: 35.3 min
